Laboratory results as given in patent US20240336572A1, “SUBSTITUTED INDAZOLE PROPIONIC ACID DERIVATIVE COMPOUNDS AND USES THEREOF” (Pfizer Inc., priority 2023, published 2024).

Experiments:
[1] = biological target: T1, AMPK 111 (Homo sapiens, UniProt Q13131+Q9Y478); assay: Biochemical profiling of AMPK activators by AMPK111 (HTRF/TR-FRET assay, SAMS peptide, PP2A dephosphorylation protection); conditions: for EC50: phosphorylated AMPK 111 (α1β1δ1 as printed), 11 point dilution, duplicate, 4-parameter fit; for Emax: phosphorylated AMPK 111, maximal activation
T1 construct: open reading frames encoding the full-length α1, β1 and δ1 subunits of human AMPK; made in house; host or cells: E. coli BL21-CodonPlus (DE3)-RIPL, pET-14b
T1 sequence (Q13131 whole entry): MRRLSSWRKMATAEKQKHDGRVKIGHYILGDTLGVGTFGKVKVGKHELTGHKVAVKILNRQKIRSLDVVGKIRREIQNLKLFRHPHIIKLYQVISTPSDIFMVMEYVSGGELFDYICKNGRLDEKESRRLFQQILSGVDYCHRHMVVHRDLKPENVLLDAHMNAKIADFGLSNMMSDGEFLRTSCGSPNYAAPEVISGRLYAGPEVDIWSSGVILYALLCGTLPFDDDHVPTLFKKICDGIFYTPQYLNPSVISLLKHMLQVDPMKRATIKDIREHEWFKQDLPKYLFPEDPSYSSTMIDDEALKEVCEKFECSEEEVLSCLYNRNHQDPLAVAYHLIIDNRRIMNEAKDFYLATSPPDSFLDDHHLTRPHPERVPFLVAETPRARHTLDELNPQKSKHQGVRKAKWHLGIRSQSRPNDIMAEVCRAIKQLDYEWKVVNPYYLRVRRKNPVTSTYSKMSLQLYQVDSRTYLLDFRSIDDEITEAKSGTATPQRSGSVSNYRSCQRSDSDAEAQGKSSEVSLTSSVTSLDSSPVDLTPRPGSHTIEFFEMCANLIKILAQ
T1 sequence (Q9Y478 whole entry): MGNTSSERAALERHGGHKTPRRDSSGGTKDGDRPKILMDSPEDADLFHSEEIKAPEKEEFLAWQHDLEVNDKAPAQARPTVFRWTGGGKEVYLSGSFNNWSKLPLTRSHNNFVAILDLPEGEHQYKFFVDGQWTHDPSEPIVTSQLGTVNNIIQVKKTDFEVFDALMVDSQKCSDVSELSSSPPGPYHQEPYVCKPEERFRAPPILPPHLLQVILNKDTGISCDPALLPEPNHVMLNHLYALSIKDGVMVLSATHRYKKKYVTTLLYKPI
T1 sequence (P54619 whole entry partner): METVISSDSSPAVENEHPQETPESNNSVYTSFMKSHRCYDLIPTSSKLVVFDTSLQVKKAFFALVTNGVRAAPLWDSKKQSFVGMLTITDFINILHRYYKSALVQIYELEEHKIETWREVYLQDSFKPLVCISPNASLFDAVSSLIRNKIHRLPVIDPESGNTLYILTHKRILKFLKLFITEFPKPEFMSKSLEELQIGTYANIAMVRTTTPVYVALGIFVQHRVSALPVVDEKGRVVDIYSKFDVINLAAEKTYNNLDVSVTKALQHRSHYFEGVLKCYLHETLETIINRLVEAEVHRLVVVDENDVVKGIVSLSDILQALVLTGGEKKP

[2] = biological target: T2, AMPK 221 (Homo sapiens, UniProt O43741+P54646); assay: Biochemical profiling of AMPK activators by AMPK221 (HTRF/TR-FRET assay, SAMS peptide, PP2A dephosphorylation protection); conditions: for EC50: phosphorylated AMPK 221 (α2β2δ1), 11 point dilution, duplicate, 4-parameter fit; for Emax: phosphorylated AMPK 221, maximal activation
T2 construct: open reading frames encoding the full-length α2, β2 and δ1 subunits of human AMPK; made in house; host or cells: E. coli BL21-CodonPlus (DE3)-RIPL, pET-14b
T2 sequence (P54646 whole entry): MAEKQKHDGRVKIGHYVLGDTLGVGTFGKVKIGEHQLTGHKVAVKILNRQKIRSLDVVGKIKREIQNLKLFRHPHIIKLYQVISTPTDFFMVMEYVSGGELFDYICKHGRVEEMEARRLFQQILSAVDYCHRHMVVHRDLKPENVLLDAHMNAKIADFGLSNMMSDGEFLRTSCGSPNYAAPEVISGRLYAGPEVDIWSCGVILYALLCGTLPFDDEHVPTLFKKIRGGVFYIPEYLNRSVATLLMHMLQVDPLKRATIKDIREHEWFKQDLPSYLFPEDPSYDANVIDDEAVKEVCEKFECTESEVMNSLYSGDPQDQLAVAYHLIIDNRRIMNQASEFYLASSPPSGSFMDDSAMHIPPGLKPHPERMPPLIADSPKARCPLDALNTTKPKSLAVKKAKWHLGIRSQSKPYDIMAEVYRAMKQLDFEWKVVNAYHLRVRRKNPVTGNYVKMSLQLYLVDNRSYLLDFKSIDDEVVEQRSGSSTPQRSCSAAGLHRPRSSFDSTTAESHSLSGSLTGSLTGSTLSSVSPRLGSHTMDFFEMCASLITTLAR
T2 sequence (O43741 whole entry): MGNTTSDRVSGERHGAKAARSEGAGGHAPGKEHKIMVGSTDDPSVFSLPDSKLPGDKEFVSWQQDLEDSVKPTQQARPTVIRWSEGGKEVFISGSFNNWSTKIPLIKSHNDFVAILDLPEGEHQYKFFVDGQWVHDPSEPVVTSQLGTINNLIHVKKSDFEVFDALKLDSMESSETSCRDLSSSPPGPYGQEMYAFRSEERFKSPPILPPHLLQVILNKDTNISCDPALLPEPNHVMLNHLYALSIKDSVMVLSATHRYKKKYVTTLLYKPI
T2 sequence (P54619 whole entry partner): as the sequence (P54619 whole entry partner) above

[3] = Metabolite profile in liver microsomes, hepatocytes, recombinant human P450 and UGT enzymes, and animal plasma; type: in vitro ADME; conditions: liver microsomes and hepatocytes (mouse, rat, rabbit, dog, monkey, human)
Experimental: The metabolite profile of Example 1 is evaluated in liver microsomes and hepatocytes (mouse, rat, rabbit, dog, monkey, and human), recombinant human cytochrome P450 enzymes, recombinant human UGT enzymes, and plasma from animals (mouse, rat, and dog).

EC50 [1] [nM] | Emax [1] [%] | EC50 [2] [nM] | Emax [2] [%] | metabolite profile [3] | SMILES
47 | 75 | 88 | 57 | oxidation and glucuronidation | O=C(O)CCc1n[nH]c2cc(Cl)c(-c3ccc(-c4ccccc4O)cc3)cc12 [Example 1, 3-(6-Chloro-5-(2′-hydroxy-[1,1′-biphenyl]-4-yl)-1H-indazol-3-yl)propanoic acid]
74 | 75 | 229 | 63 | – | Cc1cccc(O)c1-c1ccc(-c2cc3c(CCCC(=O)O)n[nH]c3cc2Cl)cc1 [Example 75, 4-(6-chloro-5-(2′-hydroxy-6′-methyl-[1,1′-biphenyl]-4-yl)-1H-indazol-3-yl)butanoic acid]
6 | 67 | 13 | 53 | – | CNC(=O)c1ccc(-c2ccc(-c3cc4c(CCC(=O)O)n[nH]c4cc3Cl)cc2)cc1 [Example 76, 3-(6-chloro-5-(4′-(methylcarbamoyl)-[1,1′-biphenyl]-4-yl)-1H-indazol-3-yl)propanoic acid]
70 | 66 | 82 | 58 | – | O=C(O)CCc1n[nH]c2cc(Cl)c(-c3ccc(-c4ccc(C(=O)NCCCO)cc4)cc3)cc12 [Example 77, 3-(6-chloro-5-(4′-((3-hydroxypropyl)carbamoyl)-[1,1′-biphenyl]-4-yl)-1H-indazol-3-yl)propanoic acid]
93 | 78 | 87 | 66 | – | COc1ccc(C)c(-c2ccc(-c3cc4c(CCCC(=O)O)n[nH]c4cc3Cl)cc2)c1O [Example 78, 4-(6-chloro-5-(2′-hydroxy-3′-methoxy-6′-methyl-[1,1′-biphenyl]-4-yl)-1H-indazol-3-yl)butanoic acid]
39 | 67 | 29 | 27 | – | O=C(CCc1n[nH]c2cc(Cl)c(-c3ccc(-c4ccccc4O)cc3)cc12)OC1OC(C(=O)O)C(O)C(O)C1O (stereo not drawn) [Example 79, 6-((3-(6-chloro-5-(2′-hydroxy-[1,1′-biphenyl]-4-yl)-1H-indazol-3-yl)propanoyl)oxy)-3,4,5-trihydroxytetrahydro-2H-pyran-2-carboxylic acid]
> 21100 | – | > 21100 | – | – | O=C(O)CCc1n[nH]c2cc(Cl)c(-c3ccc(-c4ccccc4OC4OC(C(=O)O)C(O)C(O)C4O)cc3)cc12 (stereo not drawn) [Example 80, 6-((4′-(3-(2-carboxyethyl)-6-chloro-1H-indazol-5-yl)-[1,1′-biphenyl]-2-yl)oxy)-3,4,5-trihydroxytetrahydro-2H-pyran-2-carboxylic acid]
